The source of these data is ChEMBL document CHEMBL3137667, “[Drug-induced liver injury; fourteenth updated edition of the bibliographic database of liver injuries and related drugs]” (Gastroenterol Clin Biol, 2004).

Data set [1] is described as follows: Highest frequency of moderate liver toxicity observed during clinical trials, expressed as a percentage. [column '% BIOL' in source]. The conditions noted are these: human.
The nature of data set [2]: Highest frequency of acute liver toxicity observed during clinical trials, expressed as a percentage. [column '% AIGUE' in source]. The conditions noted are these: human.
A short description of data set [3]: Comments (NB not yet translated). [column 'COMMENTAIRES' in source]. The conditions noted are these: human.
Data set [4] is described as follows: Times to onset, minimal and maximal, observed in the indexed observations. [column 'DELAI' in source]. The conditions noted are these: human.
The nature of data set [5]: Proposed mechanism(s) of liver damage. [column 'MEC' in source]. Particulars: human.
The conditions of data set [6]: human, serum.
The conditions of data set [7]: human, serum. This is another data set of the same source.
The conditions of data set [8]: human.
For data set [9] the following is noted: human. This is another data set of the same source.
The conditions of data set [10]: human. The source holds these as a separate data set.
For data set [11] the following is noted: human, serum, 4383 h.
The conditions of data set [12]: human. The source holds these as a separate data set.
The conditions of data set [13]: human. The source holds these as a separate data set.
The conditions of data set [14]: human. The source holds these as a separate data set.
The conditions of data set [15]: human. The source holds these as a separate data set.
For data set [16] the following is noted: human. The source holds these as a separate data set.
The conditions of data set [17]: human. The source holds these as a separate data set.

Structures are written as SMILES.
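For Hepatotoxicity (association with vascular disease) in this document: count of indexed literature references reporting vascular liver injury in humans, e.g. peliosis hepatitis, hepatic veno-occlusive disease or Budd-Chiari syndrome.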
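For Hepatotoxicity (benign tumour) in this document: value is a count of indexed literature references citing a benign tumour confirmed by histopathology.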
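For Hepatotoxicity (choleostasis) in this document: human cholestatic liver injury, shown by histopathology or by peak ALT or AST elevation over alkaline phosphatase ratio below 2, value counts indexed literature reports.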
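For Hepatotoxicity (chronic liver disease) in this document: chronic liver injury confirmed by histopathology or persistently raised serum aminotransferase activity beyond 6 months, value given as the count of indexed literature references.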
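For Hepatotoxicity (cirrhosis) in this document: value is a count of indexed literature references reporting cirrhosis confirmed by histopathology.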
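For Hepatotoxicity (cytolytic) in this document: human cytolytic liver injury, shown by histopathology or by a ratio above 5 of peak ALT or AST elevation to alkaline phosphatase elevation, value counts indexed references.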
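For Hepatotoxicity (granulomatous hepatitis) in this document: value is a count of indexed literature references reporting granulomatous liver disease confirmed by histopathology.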
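For Hepatotoxicity (malignant tumour) in this document: malignant tumour confirmed by histopathology, value gives the count of indexed literature references reporting it.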
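For Hepatotoxicity (severe hepatitis) in this document: human clinical data: severe hepatitis, meaning potentially life-threatening liver failure or clinically observed cases, the value counts how many indexed literature references report it.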
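For Hepatotoxicity (steatosis) in this document: steatosis confirmed by histopathology, value is the count of indexed references.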

`CCOC(=O)C1=C(COCCN)NC(C)=C(C(=O)OC)C1c1ccccc1Cl` (centres undefined) [AMLODIPINE]: the “Hepatotoxicity (moderate)” value is 12.8% in data set [1] (Liver) and 2 in data set [6]. For the same molecule, the “Hepatotoxicity (acute)” value in data set [2] (Liver) is 0%; in [7] it was 4. Further, the “Hepatotoxicity (comment)” value in [3] was “CHOLANGIOLITE AC_ANTI-M/-N RC/DILTIAZEM”. Besides, in [4], the “Hepatotoxicity (time to onset)” value is recorded as 1 month - 10 months. For the same molecule, in [5], the “Hepatotoxicity (mechanism)” value was “Allergic”. In addition, the “Hepatotoxicity (cytolytic)” value in data set [8] is on record as 3. Also, the “Hepatotoxicity (choleostasis)” value in data set [9] was found to be 2. Also, the “Hepatotoxicity (severe hepatitis)” value in [10] (Liver) is 0. Also, in data set [11], the “Hepatotoxicity (chronic liver disease)” value is reported as 0. For the same molecule, the “Hepatotoxicity (cirrhosis)” value in [12] is on record as 0. Moreover, the “Hepatotoxicity (granulomatous hepatitis)” value in data set [13] stood at 0. In data set [14], the “Hepatotoxicity (association with vascular disease)” value is 0. For the same molecule, the “Hepatotoxicity (steatosis)” value in data set [15] amounted to 0. Moreover, the “Hepatotoxicity (malignant tumour)” value in data set [16] is recorded as 0. Besides, in data set [17], the “Hepatotoxicity (benign tumour)” value is on record as 0.
Take `CC1(C)S[C@@H]2[C@H](NC(=O)[C@H](N)c3ccc(O)cc3)C(=O)N2[C@H]1C(=O)O` [AMOXICILLIN]: the “Hepatotoxicity (moderate)” value amounted to 8% in data set [1] (Liver) and 7 in data set [6]. For the same molecule, the entries for the “Hepatotoxicity (acute)” value in data set [2] (Liver) and in [7] were 0% and 10, respectively. In data set [3], the “Hepatotoxicity (comment)” value is recorded as “CHOLESTASE_PROLONGEE CHOLANGITE DUCTOPENIE RC/ERYTHROMYCINE”. For the same molecule, the “Hepatotoxicity (time to onset)” value in data set [4] came out at 3 days - 8 weeks. Besides, the “Hepatotoxicity (mechanism)” value in data set [5] is “Allergic”. In addition, the “Hepatotoxicity (cytolytic)” value in [8] is 2. In [9], the “Hepatotoxicity (choleostasis)” value turned out to be 7. Also, the “Hepatotoxicity (severe hepatitis)” value in data set [10] (Liver) was determined as 1. The “Hepatotoxicity (chronic liver disease)” value in [11] stood at 1. Moreover, the “Hepatotoxicity (cirrhosis)” value in data set [12] was 0. In addition, the “Hepatotoxicity (granulomatous hepatitis)” value in [13] is on record as 1. For the same molecule, the “Hepatotoxicity (association with vascular disease)” value in data set [14] is 0. For the same molecule, in [15], the “Hepatotoxicity (steatosis)” value was found to be 0. Besides, the “Hepatotoxicity (malignant tumour)” value in [16] worked out at 0. In data set [17], the “Hepatotoxicity (benign tumour)” value is reported as 0.
On to `CC(C)c1c(C(=O)Nc2ccccc2)c(-c2ccccc2)c(-c2ccc(F)cc2)n1CC[C@@H](O)C[C@@H](O)CC(=O)O` [ATORVASTATIN], for which the entries for the “Hepatotoxicity (moderate)” value in data set [1] and in [6] were 13.6% and 36, respectively. The “Hepatotoxicity (acute)” value in data set [2] is recorded as 1.8%; in data set [7] it was 10. The “Hepatotoxicity (comment)” value in [3] is given as “AC_ANTI-N/-ML”. Further, the “Hepatotoxicity (time to onset)” value in data set [4] amounted to 6 days - 7 months. Also, in [5], the “Hepatotoxicity (mechanism)” value was “Allergic”. For the same molecule, in [8], the “Hepatotoxicity (cytolytic)” value was 5. Moreover, the “Hepatotoxicity (choleostasis)” value in data set [9] was found to be 6. Moreover, the “Hepatotoxicity (severe hepatitis)” value in [10] was 1. Moreover, in data set [11], the “Hepatotoxicity (chronic liver disease)” value worked out at 1. Besides, the “Hepatotoxicity (cirrhosis)” value in data set [12] is 1. The “Hepatotoxicity (granulomatous hepatitis)” value in data set [13] is reported as 0. For the same molecule, the “Hepatotoxicity (association with vascular disease)” value in data set [14] worked out at 0. Moreover, the “Hepatotoxicity (steatosis)” value in [15] stood at 0. The “Hepatotoxicity (malignant tumour)” value in [16] is listed as 0. Also, in [17], the “Hepatotoxicity (benign tumour)” value came to 0.
`CC[C@H]1OC(=O)[C@H](C)[C@@H](O[C@H]2C[C@@](C)(OC)[C@@H](O)[C@H](C)O2)[C@H](C)[C@@H](O[C@@H]2O[C@H](C)C[C@H](N(C)C)[C@H]2O)[C@](C)(O)C[C@@H](C)CN(C)[C@H](C)[C@@H](O)[C@]1(C)O` [AZITHROMYCIN]: the “Hepatotoxicity (moderate)” value worked out at 40% in [1] and 53 in data set [6]. Moreover, the entries for the “Hepatotoxicity (acute)” value in data set [2] and in [7] were 0% and 5, respectively. Also, the “Hepatotoxicity (comment)” value in data set [3] is “CHOLANGITE”. Moreover, in data set [4], the “Hepatotoxicity (time to onset)” value is 3 days - 18 days. In addition, the “Hepatotoxicity (mechanism)” value in data set [5] is listed as “Allergic”. In addition, in data set [8], the “Hepatotoxicity (cytolytic)” value was determined as 0. Moreover, the “Hepatotoxicity (choleostasis)” value in data set [9] is reported as 4. For the same molecule, in data set [10], the “Hepatotoxicity (severe hepatitis)” value is reported as 0. Further, the “Hepatotoxicity (chronic liver disease)” value in data set [11] is listed as 0. The “Hepatotoxicity (cirrhosis)” value in [12] was determined as 0. In addition, in [13], the “Hepatotoxicity (granulomatous hepatitis)” value is recorded as 0. In addition, the “Hepatotoxicity (association with vascular disease)” value in data set [14] turned out to be 0. In [15], the “Hepatotoxicity (steatosis)” value was 0. For the same molecule, the “Hepatotoxicity (malignant tumour)” value in data set [16] was determined as 0. Further, in data set [17], the “Hepatotoxicity (benign tumour)” value was 0.
`CO[C@@]1(NC(=O)Cc2cccs2)C(=O)N2C(C(=O)O)=C(COC(N)=O)CS[C@@H]21` [CEFOXITIN]: the “Hepatotoxicity (moderate)” value in [1] is given as 25.8%; in [6], 18. In addition, the “Hepatotoxicity (acute)” value was 0% in data set [2] and 1 in data set [7]. In [3], the “Hepatotoxicity (comment)” value is on record as “CHOLESTASE_PROLONGEE”. Also, the “Hepatotoxicity (time to onset)” value in [4] is 17 days. The “Hepatotoxicity (mechanism)” value in data set [5] is recorded as “Allergic”. The “Hepatotoxicity (cytolytic)” value in data set [8] stood at 0. Also, the “Hepatotoxicity (choleostasis)” value in data set [9] amounted to 1. Besides, in data set [10], the “Hepatotoxicity (severe hepatitis)” value is 0. In addition, the “Hepatotoxicity (chronic liver disease)” value in data set [11] amounted to 0. Besides, the “Hepatotoxicity (cirrhosis)” value in data set [12] was 0. Further, in data set [13], the “Hepatotoxicity (granulomatous hepatitis)” value is 0. Also, in data set [14], the “Hepatotoxicity (association with vascular disease)” value is on record as 0. For the same molecule, the “Hepatotoxicity (steatosis)” value in data set [15] is listed as 0. In addition, in data set [16], the “Hepatotoxicity (malignant tumour)” value is recorded as 0. In addition, in data set [17], the “Hepatotoxicity (benign tumour)” value was 0.
`CC(=O)OCC1=C(C(=O)O)N2C(=O)[C@@H](NC(=O)Cc3cccs3)[C@H]2SC1` [CEPHALOTHIN]: the figures for the “Hepatotoxicity (moderate)” value in data set [1] and in data set [6] were 1.5% and 4, respectively. For the same molecule, the “Hepatotoxicity (acute)” value was 0% in data set [2] and 4 in data set [7]. For the same molecule, the “Hepatotoxicity (comment)” value in [3] is recorded as “RC/NAFCILLINE/OXACILLINE/CEFAPIRINE”. Moreover, the “Hepatotoxicity (time to onset)” value in [4] turned out to be 1 day - 1 month. Besides, the “Hepatotoxicity (mechanism)” value in data set [5] is on record as “Allergic”. Further, the “Hepatotoxicity (cytolytic)” value in data set [8] turned out to be 1. In addition, the “Hepatotoxicity (choleostasis)” value in data set [9] was found to be 1. Further, in data set [10], the “Hepatotoxicity (severe hepatitis)” value was 0. The “Hepatotoxicity (chronic liver disease)” value in [11] turned out to be 0. In addition, the “Hepatotoxicity (cirrhosis)” value in [12] stood at 0. The “Hepatotoxicity (granulomatous hepatitis)” value in data set [13] amounted to 0. The “Hepatotoxicity (association with vascular disease)” value in [14] was determined as 0. Moreover, the “Hepatotoxicity (steatosis)” value in data set [15] was determined as 0. Further, in data set [16], the “Hepatotoxicity (malignant tumour)” value was 0. Also, the “Hepatotoxicity (benign tumour)” value in data set [17] amounted to 0.
On to `CC1=C(C(=O)O)N2C(=O)[C@@H](NC(=O)[C@H](N)C3=CCC=CC3)[C@H]2SC1` [CEPHRADINE], for which the “Hepatotoxicity (moderate)” value is on record as 24.3% in [1] and 1 in data set [6]. Moreover, the “Hepatotoxicity (acute)” value came to 0% in data set [2] and 1 in data set [7]. Moreover, the “Hepatotoxicity (comment)” value in data set [3] was “CHOLECYSTITE_A_EOSINOPHILES”. For the same molecule, the “Hepatotoxicity (time to onset)” value in [4] was 3 weeks. Further, in [5], the “Hepatotoxicity (mechanism)” value is listed as “Allergic”. In addition, in data set [8], the “Hepatotoxicity (cytolytic)” value turned out to be 0. In addition, the “Hepatotoxicity (choleostasis)” value in data set [9] came out at 1. Further, the “Hepatotoxicity (severe hepatitis)” value in [10] is recorded as 0. Also, the “Hepatotoxicity (chronic liver disease)” value in data set [11] stood at 0. Also, the “Hepatotoxicity (cirrhosis)” value in data set [12] is on record as 0. Besides, the “Hepatotoxicity (granulomatous hepatitis)” value in [13] is given as 0. For the same molecule, the “Hepatotoxicity (association with vascular disease)” value in [14] is reported as 0. Further, in [15], the “Hepatotoxicity (steatosis)” value is reported as 0. Further, the “Hepatotoxicity (malignant tumour)” value in [16] is recorded as 0. Besides, the “Hepatotoxicity (benign tumour)” value in data set [17] is recorded as 0.
